US4564619A, “Carbostyril derivative” (Otsuka Pharmaceutical Co., Ltd., priority 1982, dated 1986)

What was measured:
[1] = tested on: ADP-induced aggregation in rabbit platelets; experiment: Inhibition of ADP-induced platelet aggregation in rabbit platelet rich plasma; type: cell-based; details: Oryctolagus cuniculus, read-out: Inhibition rate of ADP-induced aggregation; for inhibition at 100 µM (stock): Concentration of the test compound solution 10^-4 mole; for inhibition at 10 µM (stock): Concentration of the test compound solution 10^-5 mole
Protocol: (§1) The platelet aggregation inhibitory effect was measured by using a Platelet Aggregation Tracer Model PAT-6M (manufactured by Nikoh Bio-Science Co., Ltd.) by a method according to Kimura, et al., [IGAKU-NO-AYUMI (Progress in Medicine), Vol. 114, No. 9, pp. 718-727, Aug. 30, 1980, and Nature, pp. 927-929, 1962].
(§2) The blood sample used for the test was a 1:9 (by volume) mixture of "3.8%-CITRATE"® (a registered trademark for 3.8%-sodium citrate, manufactured by Green Cross Corp.) and whole blood collected from rabbits. Said sample was subjected to 10-minute centrifugal separation at 1,000 r.p.m. (200xG) to obtain a platelet rich plasma (PRP). The PRP thus obtained was separated, and the remaining blood sample was further subjected to 15-minute centrifugal separation at 3,000 r.p.m. (2,000xG) to obtain a platelet poor plasma (PPP).
(§3) The number of platelets in the PRP was counted by the Brecher-Clonkite Method, and the PRP was diluted with the PPP to prepare a PRP sample with a platelet concentration of 600,000/microliter to prepare for an adenosine diphosphate (ADP)-induced aggregation test, and a collagen-induced aggregation test. 0.2 Milliliter of the PRP sample was added to 2 microliters of a solution of a test compound of predetermined concentration and this mixture was placed in a 37° C. thermostat for one minute. Then 20 microliters of an ADP or collagen solution was added to the mixture. In this test, the ADP solution was prepared by adjustment to a concentration of 7.5×10^-5 M by using Auren-Beronal buffer solution (pH 7.35). Further, the collagen solution was prepared by adjustment to a concentration of 200 micrograms/ml by using collagen reagent of "Holm"® (manufactured by Hormon-Chemie Munchen, GmbH.) which was diluted wih a physiological saline solution.
(§4) The transmittance of the resultant test mixture was determined and the change of transmittance was recorded by using the aggregometer at a stirrer speed of 1,100 r.p.m.
(§5) The platelet aggregation inhibitory effect of the test compound was measured in terms of inhibition rate (%) with respect to the aggregation rate of the controls. The aggregation rate was calculated from the following formula.
(§6) Aggregation rate=[(c-a)/(b-a)]×100
(§7) The percent inhibition is calculated from the following formula.
(§8) Inhibition rate (%)=[(A-B)/A]×100
(§9) The inhibitory effect of the test compounds on collagen-induced aggregation in rabbit platelets is shown in Table 1, similarly such effect on ADP-induced aggregation in rabbit platelets is shown in Table 2.

[2] = tested on: coronary artery; experiment: Increased amount of the blood flow in coronary artery, intravenous administration, anesthetized dog; type: in vivo
Protocol: (§10) The change of blood flow in coronary artery and the change of blood pressure were measured by a method according to Yakura et al., [Japan Journal of Pharmacology, Vol. 57, pages 380-391 (1961)] and according to Taira, et al. [Clin. Exp. Pharmacol. Physiol., Vol. 6, pages 301-316, (1976)].
(§11) An adult bastard dog of either sex weighing 8-13 kg was anesthetized with sodium pentobarbital at the rate of 30 mg/kg by intraveneous administration, then the dog was fixed in supination and was theracotomized under a condition of forced breathing. After another intraveneous administration of sodium heparin at the rate of 500 U/kg, 100 U/kg per hour, the dog was subjected to the following experiments.
(§12) (2) Intraveneous administration
(§13) Morawitz's cannula was cannulated to the coronary sinus venosus through the auricula dextra cordis, and the blood in vein was circulated to the right carotid. The blood flow was measured by an electromagnetic blood flow meter equipped with a blood flow observation probe in the extracorporeal circulation path of the vein. The systolic force was measured by a systolometer (pick-up) placed at the left ventricle of heart, the blood pressure was measured from the femoral artery, and the heart rate was measured from the pulse. A compound to be tested was administered through the cannula being cannulated in femoral vein. The increased amount of the blood flow in coronary artery after the administration of the test compound is shown in Table 4, also the change of blood pressure is shown in Table 5.

[3] = Change of blood pressure, intravenous administration, anesthetized dog; type: in vivo; design: unit not given here; details: femoral artery
Protocol: as §10, §11, §12, §13

[4] = tested on: collagen-induced aggregation in rabbit platelets; experiment: Inhibition of collagen-induced platelet aggregation in rabbit platelet rich plasma; type: cell-based; details: Oryctolagus cuniculus, read-out: Inhibition rate of collagen-induced aggregation; for inhibition at 100 µM (stock): Concentration of the test compound solution 10^-4 mole; for inhibition at 10 µM (stock): Concentration of the test compound solution 10^-5 mole
Protocol: as §1, §2, §3, §4, §5, §6, §7, §8, §9

SMILES | inhibition at 100 µM (stock) [1] | Change of blood pressure ([3]; 10 micrograms/kg) | Change of blood pressure ([3]; 30 micrograms/kg) | Change of blood pressure ([3]; 100 micrograms/kg) | Change of blood pressure ([3]; 300 micrograms/kg) | inhibition at 100 µM (stock) [4] | other results
CCCOc1ccc(OCCCOC(=O)C2=C(C)NC(C)=C(C(=O)OC)C2c2cccc([N+](=O)[O-])c2)c2c1NC(=O)CC2 (centres unmarked) [Compound 11, 5-{3-[2,6-Dimethyl-5-methoxycarbonyl-4-(3-nitrophenyl)-1,4-dihydropyridin-3-carboxy]-propoxy}-8-propoxy-3,4-dihydrocarbostyril] | 11% | -18 | -33 | -41 | -48 | – | Increased amount of the blood flow in coronary artery ([2]; 3 micrograms/kg): 7 mL/min; Increased amount of the blood flow in coronary artery ([2]; 10 micrograms/kg): 26 mL/min; Increased amount of the blood flow in coronary artery ([2]; 30 micrograms/kg): 58 mL/min; Increased amount of the blood flow in coronary artery ([2]; 100 micrograms/kg): 56 mL/min; Increased amount of the blood flow in coronary artery ([2]; 300 micrograms/kg): 73 mL/min; Change of blood pressure ([3]; 3 micrograms/kg): -5
C#CCOc1ccc(OCCCOC(=O)C2=C(C)NC(C)=C(C(=O)OC)C2c2cccc([N+](=O)[O-])c2)c2c1NC(=O)CC2 (centres unmarked) [Compound 12, 5-{3-[2,6-Dimethyl-5-methoxycarbonyl-4-(3-nitrophenyl)-1,4-dihydropyridin-3-carboxy]-propoxy}-8-(2-propynyloxy)-3,4-dihydrocarbostyril] | 14% | -5 | -23 | -49 | – | – | Increased amount of the blood flow in coronary artery ([2]; 3 micrograms/kg): 5 mL/min; Increased amount of the blood flow in coronary artery ([2]; 10 micrograms/kg): 30 mL/min; Increased amount of the blood flow in coronary artery ([2]; 30 micrograms/kg): 74 mL/min; Increased amount of the blood flow in coronary artery ([2]; 100 micrograms/kg): 63 mL/min
COC(=O)C1=C(C)NC(C)=C(C(=O)OCCOc2cccc3c2NC(=O)CC3)C1c1cccc([N+](=O)[O-])c1 (centres unmarked) [Compound 13, 8-{2-[2,6-Dimethyl-5-methoxycarbonyl-4-(3-nitrophenyl)-1,4-dihydropyridin-3-carboxy]-ethoxy}-3,4-dihydrocarbostyril] | – | -16 | -32 | -52 | – | – | Change of blood pressure ([3]; 3 micrograms/kg): -7
COC(=O)C1=C(C)NC(C)=C(C(=O)OCCOc2ccc3c(c2)NC(=O)CC3)C1c1cccc([N+](=O)[O-])c1 (centres unmarked) [Compound 14, 7-{2-[2,6-Dimethyl-5-methoxycarbonyl-4-(3-nitrophenyl)-1,4,-dihydropyridin-3-carboxy]-ethoxy}-3,4-dihydrocarbostyril] | – | – | -2 | -14 | -32 | – | –
COC(=O)C1=C(C)NC(C)=C(C(=O)OCCCCOc2ccc3[nH]c(=O)ccc3c2)C1c1cccc([N+](=O)[O-])c1 (centres unmarked) [Compound 15, 6-{4-[2,6-Dimethyl-5-methoxycarbonyl-4-(3-nitrophenyl)-1,4-dihydropyridin-3-carboxy]-butoxy}carbostyril] | 100% | – | -3 | -9 | -27 | 100% | inhibition at 10 µM (stock) [4]: 26%; inhibition at 10 µM (stock) [1]: 20%
COC(=O)C1=C(C)NC(C)=C(C(=O)OCCCCOc2ccc3c(c2)CCC(=O)N3)C1c1cccc([N+](=O)[O-])c1 (centres unmarked) [Compound 16, 6-{4-[2,6-Dimethyl-5-methoxycarbonyl-4-(3-nitrophenyl)-1,4-dihydropyridin-3-carboxy]-butoxy}-3,4-dihydrocarbostyril] | – | -12 | -27 | – | -54 | – | Change of blood pressure ([3]; 3 micrograms/kg): -3
COC(=O)C1=C(C)NC(C)=C(C(=O)OCCCCOc2cccc3c2CCC(=O)N3)C1c1cccc([N+](=O)[O-])c1 (centres unmarked) [Compound 17, 5-{4-[2,6-Dimethyl-5-methoxycarbonyl-4-(3-nitrophenyl)-1,4-dihydropyridin-3-carboxy]-butoxy}-3,4-dihydrocarbostyril] | – | -4 | -14 | -55 | -76 | – | –
COC(=O)C1=C(C)NC(C)=C(C(=O)OCCCCOc2cccc3[nH]c(=O)ccc23)C1c1cccc([N+](=O)[O-])c1 (centres unmarked) [Compound 18, 5-{4-[2,6-Dimethyl-5-methoxycarbonyl-4-(3-nitrophenyl)-1,4-dihydropyridin-3-carboxy]-butoxy}carbostyril] | 48% | -5 | -19 | -33 | -43 | 100% | inhibition at 10 µM (stock) [4]: 3%; inhibition at 10 µM (stock) [1]: 15%
COC(=O)C1=C(C)NC(C)=C(C(=O)OCC(COc2ccc3c(c2)CCC(=O)N3)OC(C)=O)C1c1cccc([N+](=O)[O-])c1 (centres unmarked) [Compound 23, 6-{3-[2,6-Dimethyl-5-methoxycarbonyl-4-(3-nitrophenyl)-1,4-dihydropyridin-3-carboxy]-2-acetoxypropoxy}-3,4-dihydrocarbostyril] | 79% | – | – | – | – | 100% | inhibition at 10 µM (stock) [4]: 29%; inhibition at 10 µM (stock) [1]: 29%
COC(=O)C1=C(C)NC(C)=C(C(=O)OCCCCOc2ccc3c(c2)CCC(=O)N3)C1c1ccccc1C(F)(F)F (centres unmarked) [Compound 25, 6-{4-[2,6-Dimethyl-5-methoxycarbonyl-4-(2-trifluoromethylphenyl)-1,4-dihydropyridin-3-carboxy]butoxy}-3,4-dihydrocarbostyril] | – | -34 | -46 | – | – | – | Change of blood pressure ([3]; 3 micrograms/kg): -9
COC(=O)C1=C(C)NC(C)=C(C(=O)OCC(O)COc2ccc3c(c2)CCC(=O)N3)C1c1cccc([N+](=O)[O-])c1 (centres unmarked) [Compound 39, 6-{3-[2,6-Dimethyl-5-methoxycarbonyl-4-(3-nitrophenyl)-1,4-dihydropyridin-3-carboxy]-2-hydroxypropoxy}-3,4-dihydro-carbostyril] | 76% | – | – | – | – | 100% | inhibition at 10 µM (stock) [4]: 19%
COC(=O)C1=C(C)NC(C)=C(C(=O)OCCCCOc2ccc3c(c2)CCC(=O)N3)C1c1ccc(OC)c(OC)c1 (centres unmarked) [Compound 40, 6-{4-[2,6-Dimethyl-5-methoxycarbonyl-4-(3,4-dimethoxyphenyl)-1,4-dihydropyridin-3-carboxy]butoxy}-3,4-dihydrocarbostyril] | 14% | – | – | – | – | 15% | –
COC(=O)C1=C(C)NC(C)=C(C(=O)OCCCCOc2ccc3c(c2)CCC(=O)N3)C1c1cc(OC)c(OC)c(OC)c1 (centres unmarked) [Compound 41, 6-{4-[2,6-Dimethyl-5-methoxycarbonyl-4-(3,4,5-trimethoxyphenyl)-1,4-dihydropyridin-3-carboxy]butoxy}-3,4-dihydrocarbostyril] | 30% | – | – | – | – | 35% | –
COC(=O)C1=C(C)NC(C)=C(C(=O)OCCCCOc2ccc3c(c2)CCC(=O)N3)C1c1ccc(Cl)cc1Cl (centres unmarked) [Compound 42, 6-{4-[2,6-Dimethyl-5-methoxycarbonyl-4-(2,4-dichlorophenyl)-1,4-dihydropyridin-3-carboxy]butoxy}-3,4-dihydrocarbostyril] | 26% | – | – | – | – | 39% | –
